Source: patent publication US7807675B2, “Hyaluronic acid-methotrexate conjugate” (priority 2004, dated 2010)

Assays:
[1] = tested on: human synovial cells derived from OA patients (HFLS-OA); test: Suppressive effect on proliferation of human synovial cells (HFLS-OA) stimulated by TNF-α; type: cell-based; conditions: TNF-α 10 ng/mL, 5 days, [3H]-deoxyuridine uptake, concentration calculated as MTX
Text: (§1) Effects of the HA-MTX conjugates of the invention on cell proliferation induced by TNF-α stimulation were examined using human synovial cells (HFLS). The main lesion in rheumatoid arthritis (RA) occurs in the synovial tissue, and one of the features of RA is known to be that synovial cells abnormally proliferate to form a granulation tissue (pannus) and thereby destroy the cartilage and bone of the joint. Secondary synovitis is also observed in osteoarthritis (OA). […] Thus, a compound inhibiting the proliferation of synovial cells stimulated by an inflammatory cytokine, TNF-α, becomes a drug for suppressing the progression of the pathologic conditions of, or for treating RA and OA.
(§2) The sterile aqueous solutions of the HA-MTX conjugates in Example 3 were used as test substances. As HFLS, human synovial cells derived from RA patients (HFLS-RA, CA404-05, Lot No.: 1493) and human synovial cells derived from OA patients (HFLS-OA, CA400-05, Lot No.: 1442) were purchased from Cell Applications Ins for use.
(§3) HFLS was seeded at 5,000 cells/well on a 96-well plate (Falcon) and cultured for 3 hours in Iscove's modified Dulbecco's medium (IMDM) containing 5% FBS and 1× Antibiotic-Antimycotic (GIBOC). After cellular attachment, TNF-α (final concentration: 10 ng/mL) and each HA-MTX conjugate at each concentration was added, followed by cultivation for 5 days. Two days before the end of culture, was added 37 kBq/well of [^3H]-deoxyuridine in the cells (MORAVEK), followed by determining the uptake quantity (radioactivity) of [^3H]-deoxyuridine using a scintillation counter. Cells were recovered by unsticking them with 0.05% trypsin-0.2% EDTA.
(§4) Radioactivity determined in each of the experiments with each test substance was calculated as a relative value (% of control), using, as control, radioactivity in the group of cells cultured without adding any test substance. Since the concentration of a free carboxyl group is 2.49×10^−3 mol/L (1 g/401/L; 401 is the molecular weight of N-acetylglucosamine+glucuronic acid) for each 1 mg/mL of hyaluronic acid, the MTX concentration in each HA-MTX was calculated by multiplying the value by the conjugation rate of MTX. (For 1 mg/mL of HA-MTX conjugate with a conjugation rate of MTX of 1%, the concentration of MTX was 2.49×10^−5 mol/L) The value obtained was used to calculate the activity of inhibiting cell proliferation (IC50 value) by a 4-parameter logistic method (analysis software: GraphPad Prism 3.02 and 4.02).

[2] = tested on: human synovial cells derived from RA patients (HFLS-RA); test: Suppressive effect on proliferation of human synovial cells (HFLS-RA) stimulated by TNF-α; type: cell-based; conditions: TNF-α 10 ng/mL, 5 days, [3H]-deoxyuridine uptake, concentration calculated as MTX
Text: as §1, §2, §3, §4

[3] = tested on: mBSA-induced monoarthritis model; test: Suppressive effect on knee joint swelling in mBSA-induced monoarthritis model; type: in vivo, rat; conditions: for AUC (% of control) (mean ± SEM): AUC of knee joint swelling, control = HA-treated group, LEW/Crj rat, 50 μL into right knee joint 7 and 1 day before and 7 days after inducing arthritis
Experimental: An in vivo synovitis-suppressing effect of each HA-MTX conjugate of the invention was assessed on the basis of a suppressive effect on knee joint swelling in a methylated bovine serum albumin (mBSA)-induced monoarthritis model of rat. Since the mBSA-induced arthritis model employed in this experimental example is widely used as an antigen-induced arthritis model, and known to develop synovitis (Sven E. Andersson, et al., The Journal of Rheumatology (1998) 25: 9, 1772-7), the in vivo knee joint swelling-suppressing effect observed in this model conceivably represents a synovitis-suppressing effect. The compounds of the invention suppressing synovitis in vivo are useful as therapeutic drugs for joint diseases accompanied by synovitis (RA, OA, and the like).
The animal used was the LEW/Crj rat (6-week old male, from Charles River Laboratories Japan, Inc.). Into the flank of the rat was subcutaneously injected 0.5 mL of an emulsion prepared from a 2 mg/mL mBSA (Calbiochem) aqueous solution and an equal amount of Freund's complete adjuvant (Difco) 21 and 14 days before inducing arthritis. The arthritis was induced by administering 50 μL of a 2 mg/mL mBSA aqueous solution into the right knee joint. The left knee joint was untreated, and served as control in each individual. Each test substance (sterile aqueous solution) and the control drug hyaluronic acid were each administered into the right knee joint in an amount of 50 μL 7 and 1 day before and 7 days after inducing arthritis.
The determination of knee joint swelling involved measuring the widths of both knee joints with calipers to define the left/right difference (right knee diameter−left knee diameter) as a knee joint swelling. The width of each knee joint was measured at a frequency of twice a week from immediately before inducing arthritis to two weeks later to calculate AUC (an abbreviation for Area Under the Curve; here, it means an area under a curve with time for the joint swelling) from the transition thereof with time. At each measurement, the mean and standard deviation of AUC were calculated to perform an unpaired t-test between each test substance-treated group and the HA-treated group, and significant difference was judged to be present if the probability level is less than 5%. Statistical analysis used SAS version 6.12 or 8.02 (SAS Institute Japan). In addition, the AUC of each test substance was calculated, using that in the HA-treated group as a control, as a relative value (% of control) therefor.
To verify the usefulness of the HA-MTX conjugate of the invention, the suppressive effect on joint swelling was compared, in accordance with the method of Example 3, among: 1) a group treated with the HA-MTX conjugate (sterile aqueous solution) prepared in Example 3-10; 2) a group treated with a solution containing MTX of an amount equal to that of MTX contained in the HA-MTX conjugate; and 3) a group of treated with a mixture (HA+MTX) of MTX and hyaluronic acid (HA) of amounts equal to those contained in the conjugate. HA and vehicle (2 mM phosphate buffer, 0.9% NaCl) was used as controls. In this Experimental Example, Suvenyl (SVE, Chugai Pharmaceutical Co., Ltd.) was used as HA. The time course of knee joint swelling in this test is shown in FIG. 1, and the AUC thereof in FIG. 2.

| Molecule | IC50 [1] | IC50 [2] | alleviating effect on synovitis ([3]; Experimental Example 4, arthritis model, amounts equal to those in the conjugate of Example 3-10) | AUC (% of control) (mean ± SEM) [3] | suppressive effect on the joint swelling ([3]; Experimental Example 4, compared to MTX alone or the mixture of MTX and HA in equal amounts, FIGS. 1 and 2) |
| --- | --- | --- | --- | --- | --- |
| CN(Cc1cnc2nc(N)nc(N)c2n1)c1ccc(C(=O)N[C@@H](CCC(=O)O)C(=O)O)cc1 [MTX alone, methotrexate] | 310 nM | 110 nM | neither MTX alone nor the mixture of HA and MTX had a sufficient alleviating effect on synovitis | – | – |
| MTX-α-Ile-NHC10H20O3NHCO—O—[HA] [Example 3-16] | 230 nM | – | – | 65.5 ± 4.4 % of control | – |
| MTX-α-PheGly-NHC10H20O3NHCO—O—[HA] [Example 3-15] | 450 nM | – | – | 50.1 ± 4.9 % of control | – |
| MTX-α-PhePhe-NHC10H20O3NHCO—O—[HA] [Example 3-1] | – | 1200 nM | – | – | – |
| MTX-α-PhePhe-NHC10H20O3NHCO—O—[HA] [Example 3-2] | – | 460 nM | – | – | – |
| MTX-α-PhePhe-NHC10H20O3NHCO—O—[HA] [Example 3-3] | – | 96 nM | – | 59.7 ± 5.4 % of control | – |
| MTX-α-PhePhe-NHC10H20O3NHCO—O—[HA] [Example 3-4] | – | – | – | 53.6 ± 5.4 % of control | – |
| MTX-α-PhePhe-NHC10H20O3NHCO—O—[HA] [Example 3-5] | – | – | – | 46.6 ± 4.0 % of control | – |
| MTX-α-PhePhe-NHC10H20O3NHCO—O—[HA] [Example 3-6] | 1400 nM | – | – | 69.7 ± 7.2 % of control | – |
| MTX-α-PhePhe-NHC10H20O3NHCO—O—[HA] [Example 3-7] | 410 nM | – | – | 47.7 ± 4.3 % of control | – |
| MTX-α-PhePhe-NHC10H20O3NHCO—O—[HA] [Example 3-8] | 140 nM | – | – | – | – |
| MTX-α-PhePhe-NHC10H20O3NHCO—O—[HA] [Example 3-9] | 180 nM | – | – | 48.4 ± 2.9 % of control | – |
| MTX-α-PhePhe-NHC10H20O3NHCO—O—[HA] [Example 3-10] | 77 nM | – | – | 42.3 ± 4.8 % of control | markedly strong suppressive effect on the joint swelling in the arthritis model compared to that of MTX alone or the mixture of MTX and HA |
| MTX-α-PhePhe-NHC10H20O3NHCO—O—[HA] [Example 3-11] | 33000 nM | – | – | 67.1 ± 8.0 % of control | – |
| MTX-α-PhePhe-NHC10H20O3NHCO—O—[HA] [Example 3-12] | 2000 nM | – | – | 49.2 ± 1.2 % of control | – |
| MTX-α-PhePhe-NHC10H20O3NHCO—O—[HA] [Example 3-13] | 290 nM | – | – | 42.0 ± 4.5 % of control | – |
| MTX-α-PhePhe-NHC10H20O3NHCO—O—[HA] [Example 3-14] | 9700 nM | – | – | – | – |
